In PMC8355244, “A fragment-based approach identifies an allosteric pocket that impacts malate dehydrogenase activity” (Communications Biology, 2021):
Where “and” joins values, the source holds several entries; their conditions need not be identical. Equal values may be shown once. Read-outs that look alike come from different tables or passages of the source.

Key:
[1] = biological target: T1, WT PfMDH (Plasmodium falciparum, UniProt Q6VVP7); test: Activity screening of 4DT / 4-phenylthiazol-2-amine derivatives (oxidation of malate, absorbance at 340 nm); format: biochemical
T1 construct: The full-length WT PfMDH gene was cloned into pETM-13; made in house; host or cells: E. coli Rosetta 2 (DE3) pLysS
Experimental: The oxidation of malate to oxaloacetate was assayed spectrophotometrically in flat-bottomed Corning 96-well microplates in a total volume of 250.0 µl in 50 mM glycine buffer pH 10.2[24] with an additional 400 mM NaCl for protein stability. The increase of absorbance at 340 nm was recorded in kinetic mode using a Tecan Spark multimode microplate reader at 298 K. A mastermix of 50 mM NAD+ and 44 μM PfMDH was used for both the screening and kinetics experiments. The final concentration of protein and cofactor were […], respectively. Positive control groups were set (absence of compound) in the same plate as the treated group. The absorbance from the background noise was subtracted from the data and then a linear regression model was employed in order to get the line slope from the first 5 min of the reaction. The percentage of enzymatic activity has been calculated as described by Eq. (1)1 enzymeactivity(%)=slopetreated/slopepositivecontrol*100
1.3 µL of derivatives of 4-phenylthiazol-2-amine in 100% DMSO were mixed with 237.7 µL of a mastermix of WT PfMDH previously incubated with NAD+. The final compound concentration used in this screening was 500 µM in the presence of 0.5% (v/v) DMSO. The microplate was sealed with silver foil for 1-h incubation at 25–35 °C. Finally, reactions in both the samples and control wells were started upon the addition of 13.0 µL of 5 mM malate). At the end of the experiments, the reaction of the plate was spectrophotometrically assayed at 600 nm in order to identify turbidity due to the low solubility of the compound. All measurements were performed in duplicate.

[2] = biological target: T2, PfMDH (Plasmodium falciparum, UniProt Q6VVP7); test: Thermal shift assay (TSA); format: binding; conditions: for TSA melting curve raw signal: triplicate columns
T2 construct: The full-length WT PfMDH gene was cloned into pETM-13; made in house; host or cells: E. coli Rosetta 2 (DE3) pLysS
Experimental: The TSA experiment was conducted in a BioRad CSX 96 (Biorad). Each reaction consisted of 1 mM of compound (100 mM stock in 100% (v/v) DMSO) and 10 μM PfMDH in 100 mM Na–phosphate buffer pH 7.4, 400 mM NaCl, and 10× Sypro Orange (Invitrogen) for a total volume of 100 μl. Control experiments were performed with 1% (v/v) DMSO. Inflection points were determined using BioRad CFX96™ control software. Generally, a temperature increase of over 1 °C is interpreted as a result of the stabilization of the protein-ligand interaction. On the contrary, a negative shift is considered a destabilization caused by the fragment.

T1 sequence (Q6VVP7 entry or part of it): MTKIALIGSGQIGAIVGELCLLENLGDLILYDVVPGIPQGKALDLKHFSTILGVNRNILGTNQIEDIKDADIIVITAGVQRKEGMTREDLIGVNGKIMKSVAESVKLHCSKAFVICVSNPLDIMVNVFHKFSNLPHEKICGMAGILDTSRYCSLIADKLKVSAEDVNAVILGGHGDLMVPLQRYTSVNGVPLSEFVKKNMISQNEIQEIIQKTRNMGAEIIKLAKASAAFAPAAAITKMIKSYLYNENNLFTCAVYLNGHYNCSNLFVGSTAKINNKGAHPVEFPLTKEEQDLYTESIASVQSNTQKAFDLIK
T2 sequence (Q6VVP7 entry or part of it): as above

## Cc1ccc(-c2csc(N)n2)cc1C [compound 5a]
[1]; 500 µM compound, Dunnett test details, positive control mean 100, n 2, read-out: Mean 2 (mean % enzymatic activity of treated group)
  remaining activity at 500 µM: 52%
[1]; 500 µM compound, Dunnett's multiple comparisons test, read-out: Mean Diff. (positive control vs. compound)
  inhibition at 500 µM: 48.5%
[1]; 500 µM compound, control 100%, replicate 1, read-out: % enzymatic activity repl1
  remaining activity at 500 µM: 56%
[1]; 500 µM compound, control 100%, replicate 2, read-out: % enzymatic activity repl2
  remaining activity at 500 µM: 47%
[1]; 500 µM compound, linear regression slope of absorbance 340 nm vs time, replicate 1
  Slope repl1: 0.01855
[1]; 500 µM compound, linear regression slope of absorbance 340 nm vs time, replicate 2
  Slope repl2: 0.01659
[1]; 500 µM compound, slope relative to control = 1, replicate 1
  Slope normalized repl1: 0.5569
[1]; 500 µM compound, slope relative to control = 1, replicate 2
  Slope normalized repl2: 0.4735
[1]; read-out: enzyme activity
  remaining activity at 500 µM: 52%
[2]; 1 mM compound vs DMSO control
  ΔTm at 1000 µM: -4 °C
[2]; 1 mM compound, 10 μM PfMDH, DMSO control Tm 58
  Tm: 54.0 ± 0.2 °C
[2]; Temperature 25
  TSA melting curve raw signal: 4361,22691625664 and 4136,47480077282
[2]; Temperature 28.5
  TSA melting curve raw signal: 4004,87351225735 and 4183,98281996697 and 3977,18518163549
[2]; Temperature 29
  TSA melting curve raw signal: 3986,17580138025 and 4159,213140841 and 3954,9246822172
[2]; Temperature 29.5
  TSA melting curve raw signal: 3965,52273011401 and 4133,77316232738 and 3931,4868089647
[2]; Temperature 30
  TSA melting curve raw signal: 3942,69196918976 and 4107,074098257 and 3906,46894255822
[2]; Temperature 30.5
  TSA melting curve raw signal: 3918,20361111847 and 4079,7505229192 and 3880,66961233132
[2]; Temperature 31
  TSA melting curve raw signal: 3892,85755253156 and 4052,78803951145 and 3854,85757088369
[2]; Temperature 31.5
  TSA melting curve raw signal: 3868,35453137919 and 4026,78761104422 and 3830,51973110108
[2]; Temperature 32
  TSA melting curve raw signal: 3846,14582452398 and 4002,89304325356 and 3808,96381740298
[2]; Temperature 32.5
  TSA melting curve raw signal: 3827,35535230328 and 3981,88234223881 and 3791,26035282333
[2]; Temperature 33
  TSA melting curve raw signal: 3812,58320085949 and 3964,3028642829 and 3777,54515038218
[2]; Temperature 33.5
  TSA melting curve raw signal: 3801,69756150235 and 3949,2862317403 and 3767,92816787175
[2]; Temperature 34
  TSA melting curve raw signal: 3794,14835836044 and 3937,14669832695 and 3761,78012801461
[2]; Temperature 34.5
  TSA melting curve raw signal: 3789,41768425867 and 3927,49825494442 and 3758,75347546959
[2]; Temperature 35
  TSA melting curve raw signal: 3787,20107392869 and 3920,20996880984 and 3758,62073564665
[2]; Temperature 35.5
  TSA melting curve raw signal: 3787,42445071158 and 3914,62343444524 and 3761,24267883563
[2]; Temperature 36
  TSA melting curve raw signal: 3789,87806432584 and 3911,1710367624 and 3766,28559252083
[2]; Temperature 36.5
  TSA melting curve raw signal: 3794,85229304264 and 3909,49204056619 and 3773,84282790235
[2]; Temperature 37
  TSA melting curve raw signal: 3802,25424487634 and 3909,25385384206 and 3783,72084315967
[2]; Temperature 37.5
  TSA melting curve raw signal: 3812,04395610452 and 3910,368484837 and 3795,67572672777
[2]; Temperature 38
  TSA melting curve raw signal: 3823,44040340727 and 3913,02621291175 and 3809,89581343172
[2]; Temperature 38.5
  TSA melting curve raw signal: 3837,03387753428 and 3917,20362777738 and 3826,4956570889
[2]; Temperature 39
  TSA melting curve raw signal: 3852,32039847376 and 3922,75702566821 and 3845,46925064995
[2]; Temperature 39.5
  TSA melting curve raw signal: 3869,53236426586 and 3930,26334549594 and 3867,32940969988
[2]; Temperature 40
  TSA melting curve raw signal: 3888,57436192082 and 3939,63549689652 and 3891,99828571263
[2]; Temperature 40.5
  TSA melting curve raw signal: 3909,9422248531 and 3951,08452102982 and 3919,26474950283
[2]; Temperature 41
  TSA melting curve raw signal: 3933,37089433234 and 3964,6560667334 and 3949,14976176316
[2]; Temperature 41.5
  TSA melting curve raw signal: 3959,61189650686 and 3980,53295877896 and 3981,80921424824
